Entries after “also recorded” stand apart in the source; their conditions may differ.
Key:
neonatal rats = assay: Body and organ weights of neonatal rats after subcutaneous injection; assay type: in vivo, rat; conditions: s.c. 0.3 μg/g body weight/day; for body weight change (growth) over 14 days vs PBS: first 14 days of life
Method: (§1) Adult female Wistar rats were housed in plastic cages and kept on a 12-h dark/light cycle. Animals received tap water and rat pellets ad libitum and were mated with males of the same strain. Each litter of new-born Wistar rats was culled to 9 pups per mother.
(§2) PBS or freshly prepared peptide solutions made up freshly in PBS containing 0.1% BSA were injected subcutaneously once per day in a volume of 40 μl for 14 days. Animals were injected on day 14 and 1 h later they were euthanised using sodium pentobarbital.
Rats were weighed at birth and then every 2 days prior to injection of peptides. Body weights were recorded on day 14 before injection and again when they were euthanised. The following organs were dissected and weighed: brain, heart, kidney, liver, lung, spleen.
Liner relationships between organ weights and body weights was tested using regression analysis of the organ weights measured against final body weight on day 14. There were significant linear relationships between organ weights and body weights for the following tissues: brain, spleen, heart, kidney and liver. There was no significant regression between lung weight and body weight. For those organs where their weight was linearly correlated to body weight, treatment effects on organ weight changes were analysed using ANCOVA with body weight as the co-variate.
Differences in body weight were analysed using a General Linear Model with repeated measures. Significance was assumed at the P<0.05 level.

primary rat osteoblasts = assay: Primary rat osteoblast proliferation assay ([3H]thymidine incorporation, cell number); assay type: cell-based
Excerpt: Primary rat osteoblasts were isolated from 20 day fetal rat calvariae. (The use of animals for these studies was approved by the Auckland Animal Ethics Committee.) Calvariae were excised and the frontal and parietal bones, free of suture and periosteal tissue, were collected and sequentially digested using collagenase as previously described (Cornish J, Callon K E, Lin C Q X, Xiao C L, Mulvey T B, Cooper G J S, Reid I R Trifluoroacetate, a contaminant in puritied proteins, inhibits proliferation of osteoblasts and chondrocytes. Amer J Physiol Endocrinol Metab 277: E779-E783, 1999). Primary rat osteoblasts were grown in DMEM supplemented with 10% FCS, 50 U/ml penicillin and 50 μg/ml streptomycin. After 48 hour, the medium was changed to MEM. Confluence was reached within 5-6 days, at which time the cells were subcultured into 10 cm culture plates for RNA preparation or 24 well plates for proliferation assays.
Primary rat osteoblasts were subcultured into 24 well plates at a density of 5×10^4 cells/ml/well in MEM, 5% FCS for 24 hours. Cells were growth arrested in MEM, 0.1% bovine serum albumin (BSA) for 24 hour and then fresh media and experimental compounds were added for a further 24 hours. Cells were pulsed with [^3H]thymidine (0.5 μCi/well) 2 hours before the end of the experimental incubation. The experiment was terminated and both cell numbers and thymidine incorporation were assessed. Cell numbers were analysed by detaching cells from the wells by exposure to trypsin/EDTA (0.05%/0.53 mM) for approximately 5 minutes at 37° C. Counting was performed in a hemocytometer chamber. Results are expressed per well. [^3H]Thymidine incorporation was analysed by washing the cells in MEM followed by the addition of 10% trichloroacetic acid. The precipitate was washed twice with ethnol:ether (3:1) and the wells desiccated at room temperature. The residue was dissolved in 2M KOH at 55° C. for 30 minutes, neutralized with 1M HCl, and an aliquot counted for radioactivity. Results are expressed as dpm per well. Each experiment was performed at least three times using experimental groups consisting of at least six wells.
Data are presented as mean±SEM. The significance of differences between groups was determined using Student's t tests for unpaired data and a 5% significance level. The comparisons to be made in each experiment were specified a priori, so no adjustment for multiple comparisons was necessary. Where several experiments have been shown in one figure, the data are expressed as the ratio of results in treatment groups to those in the control group and the ‘P’ values shown were calculated using the data from the individual experiments, before the data were pooled.

[1] = tested on: food deprived Wistar rats; assay: Food intake after i.c.v. injection of melanocortin peptides; assay type: in vivo, rat
Method: Adult male Wistar rats (50-60 days old, 230-260 g at the beginning of the experiment) were maintained in individual cages under controlled temperature (23° C.) and reverse lighting (1000-2200 lights off). Standard laboratory chow (NZ Stockfeed Ltd) and tap water were available ad libitum during the adaptation phase. During this time animals were handled daily to minimize the effects of stress on food intake during experiments. Body weight was measured daily before, and one week after cannulation. Any animal showing signs of illness, such as weight loss, poor grooming, or decreased activity, was removed from the study. All animal procedures undertaken were approved by the Animal Ethics Committee of the University of Auckland.
After 7 days of adaptation, animals were subject to cannula placement surgery under 3% halothane/O2 anaesthesia. A permanent lateral ventricle infusion cannula (6-mm 21 gauge) was placed on top of the dura at 7.5 mm anterior from stereotaxic zero, 1.5 mm to the right of the mid-sagittal line, and secured to the skull with dental cement. Animals were allowed at least 7 days to recover from surgery before injections.
Rats were fasted overnight before the day of experiment.
Under 3% halothane/O2 anaethesia rats were infused icv through a 12-mm 27-gauge needle, connected to 20-cm length tubing attached to a syringe. Infusions were performed in the early dark phase between 1000 and 1130 hr using motor driven infusion pumps at a rate of 1.0 μl/min over 10 min. Movement of a 0.2 ml air-space introduced between the 0.9% saline solution filling the PE10 tubing-syringe system and the test solution served as an indicator of a successful infusion. […]
Following infusion, the cannula was left in place for 1 min, removed, and the animal returned to its cage with fresh pre-weighed food and water. At 3 h post-injection, the pellets and collected food spillage in the cage, were weighed and this weight was subtracted from the initial weight to quantify the amount of food eaten over 3 h.
The significance of treatment effects was evaluated using one-way ANOVA (Systat10 package)

hypothalamic proteins = assay: Hypothalamic proteins after subcutaneous injection of new-born rats for 14 days; assay type: in vivo, rat; conditions: hypothalamus, s.c. for 14 days
Method: Tables 3 and 4 represent data from a neonatal study, where the two MSH peptides were injected subcutaneously into new-born rats for 14 days, and the changes in hypothalamic proteins assessed with the same method as the above study.
as §1, §2

SYSMEHFRWGKPV [desacetyl-α-MSH, non-acetylated form of α-MSH, obtained from Bachem]
brain weight vs PBS (neonatal rats; 14 days): significantly decreased brain weight
kidney weight vs PBS (neonatal rats; 14 days): no significant effect on kidney weight
spleen weight vs PBS (neonatal rats; 14 days): significantly increased spleen weight
body weight change (growth) over 14 days vs PBS (neonatal rats): grew significantly slower
body weight change (growth) over 14 days vs PBS (neonatal rats; listed as Desacetyl-α-MSH): significantly slowed body weight change
body weight catch up compared to PBS treated rats (neonatal rats; from day 12): appeared to catch up on body weight from day 12
antagonism of α-MSH stimulated [3H] thymidine uptake (primary rat osteoblasts; 10^−7 M against α-MSH 10^−8 M and 10^−7 M, growth arrested primary rat osteoblasts): inhibited two doses of α-MSH (10^−8 M and 10^−7 M) from stimulating [^3H] thymidine uptake; also recorded: antagonise α-MSH stimulated stimulation of thymidine incorporation
osteoblast proliferation (primary rat osteoblasts; 10^−7 M and 10^−8 M, alone): no significant effect on osteoblast proliferation in two out of three experiments
thymidine incorporation or cell numbers (proliferation) (primary rat osteoblasts; growth arrested primary rat osteoblasts, 10^−7 M, alone): did not stimulate thymidine incorporation or cells numbers
effect on food intake over 3 h vs PBS ([1]; 10 μg i.c.v., first study): not significantly different from the PBS treated control group
effect on food intake over 3 h vs PBS ([1]; 10 μg i.c.v., first study, listed as Desacetyl-α-MSH): no significant effect on feeding
effect on food intake over 3 h vs PBS ([1]; 50 μg i.c.v., second study): significantly reduce food intake; also recorded: significantly decreased food intake
ATP synthase, H+ transporting (p1379), level compared to control (hypothalamic proteins): 1.7 fold decrease
RIKEN cDNA0610011D08 (p1381), level compared to control (hypothalamic proteins): 3.3 fold increase
cofilin (p1854), level compared to control (hypothalamic proteins): 1.9 fold increase
creatine kinase brain (p1079), level compared to control (hypothalamic proteins): 1.9 fold increase
creatine kinase brain (p1251), level compared to control (hypothalamic proteins): 2.1 fold increase
dihydropyrimidinase-like 2 (p537), level compared to control (hypothalamic proteins): 2.5 fold decrease
heat shock protein (p1445), level compared to control (hypothalamic proteins): 2.0 fold increase
hypothetical protein XP_112457 (p1936), level compared to control (hypothalamic proteins): 2.2 fold increase
prohibitin homologue (p1458), level compared to control (hypothalamic proteins): 1.7 fold increase
protein kinase C inhibitor (p1790), level compared to control (hypothalamic proteins): 1.8 fold increase
similar to SH3-containing protein SH3GLB2 (p1557), level compared to control (hypothalamic proteins): 4.0 fold increase
similar to phosphoglycerate kinase (p1363), level compared to control (hypothalamic proteins): 1.6 fold increase
spectrin fragment (p1362), level compared to control (hypothalamic proteins): 2.5 fold decrease
stathmin (p1610), level compared to control (hypothalamic proteins): 2.6 fold increase
stathmin P*Ser38 (p1588), level compared to control (hypothalamic proteins): 1.7 fold increase
triosephosphate isomerase (p1339), level compared to control (hypothalamic proteins): 2.1 fold increase
tubulin beta (p1520), level compared to control (hypothalamic proteins): 1.6 fold increase

From US20090118194A1, “Measurement of melanocortin peptides and uses thereof” (Auckland UniServices Limited, priority 2002, published 2009)
